# Values quoted from earlier work as cited in patent US20240342237A1, “COMPOSITION AND METHODS OF TREATMENT USING TRANSDERMAL SUPPLEMENTATION” (Xygenyx Inc., priority 2023, published 2024).
# Square brackets hold non-standard residues; d marks the D form. Peptide text beside a SMILES is read from it. Cit = NC(=O)NCCC[C@H](N)C(=O)O
# Assays:
# [1] = in vivo
# skin [2] = details: as penetration enhancer
# [3] = compared to α-tocopherol = 1.0
# skin [4] = details: topical application, concentrations 0.5-5%
# [5] = system: wide dynamic range neurons in the ventroposterolateral nucleus of the thalamus; details: in vivo
# [6] = dietary intake in equal portions
# skin [7] = details: topical formulations, within four weeks of treatment
molecule,measurement,setting,value
HGH: hormone comprising a peptide chain that is synthesized in the pituitary gland,biological half-life,[1],10-20 minutes
CC(C)[C@@H]1CC[C@@H](C)C[C@H]1O [Menthol],factor of increase of transdermal drug uptake,skin [2],≥ 10
Cc1cc(O)cc2c1O[C@](C)(CCC[C@H](C)CCC[C@H](C)CCCC(C)C)CC2 [δ-tocopherol],relative biological activity,[3],0.03
"CC12CCC(CC1)C(C)(C)O2 [eucalyptol, 1,8-epoxy-p-menthane]",factor of increase of transdermal drug uptake,skin [2],more than 10
"C=CCCCCCCCCC(=O)N[C@@H](Cc1ccccc1)C(=O)O [UP, Undecylenoyl phenylalanine]",time to skin lightening effects,skin [4],≥ 7 days
"CCCCCc1cc(O)c2c(c1)OC(C)(C)C1CCC(C)=CC21 (stereo not shown) [THC, Δ-9-tetrahydrocannabinol]",power in mediating pain relative to morphine,[5],ten times more powerful than morphine
Cc1cc(O)c(C)c2c1O[C@](C)(CCC[C@H](C)CCC[C@H](C)CCCC(C)C)CC2 [β-tocopherol],relative biological activity,[3],0.5
Cc1c(O)cc2c(c1C)O[C@](C)(CCC[C@H](C)CCC[C@H](C)CCCC(C)C)CC2 [γ-tocopherol],relative biological activity,[3],0.1
same,concentration in vivo relative to α-tocopherol,[6],roughly 10%
"CC[C@H](C)[C@H](NC(=O)[C@H](CC(=O)O)NC(=O)[C@@H](N)CCCCN)C(=O)N[C@@H](CCCNC(N)=O)C(N)=O [tripeptide-10 citrulline, Tripeptide-10 citrulline] (H-KDI[Cit]-NH2)",improvement of suppleness,skin [7],≤ 54%
Cc1c(C)c2c(c(C)c1O)CC[C@@](C)(CCC[C@H](C)CCC[C@H](C)CCCC(C)C)O2 [α-tocopherol],reduction of risk of coronary disease,"dietary supplementation, doses up to 400 IU/day",up to 34%
same,reduction of risk of developing neurodegenerative diseases such as Alzheimer's Syndrome or dementia,"dietary supplementation, doses up to 400 IU/day, controlled trials",≤ 24%
same,reduction in the development of age-related cataracts,"in combination with 10-20 mg β-carotene and 400-500 mg vitamin C, doses around 400-500 IU",23%
